Consider 11 molecules from patent publication US8420815B1, “Anti-cancer agents based on N-acyl-2, 3-dihydro-1H-pyrrolo[2,3-b]quinoline derivatives and a method of making” (U.S. Department of Energy, priority 2010, dated 2013).

This assay relates to DU-145 cells. Briefly: Cell proliferation assay (Alamar-Blue), proliferation inhibition of DU-145 cells. Conditions: Homo sapiens, 72 h, 3 days incubation, Alamar-Blue fluorescence. Type of assay: cell-based. The procedure:
Protocol for Cell Proliferation Assay:
This homogeneous assay involves simply adding a single reagent, the Alamar-Blue, to the cell culture and measuring the fluorescence intensity (excitation wavelength=530 nm, emission wavelength=590 nm) after an incubation step. The Alamar-Blue reagent utilizes the redox dye resazurin, which is not fluorescent, but upon reduction by metabolically active cells is converted into a highly fluorescent product (resorufin). A decrease in fluorescence in the presence of a test compound indicates reduced proliferation. This change in signal is proportional to the number of viable cells and used as a measure of relative cytotoxicity. Therefore, the fluorescence intensity observed in this assay is a true measure of the viable proliferative cells.
• 2 mM stock of Paclitaxel in DMSO. • DMSO (Panreac, Cat. number 141954.1611) • Resazurin sodium salt (Sigma, R-7071). 50 mM stock in DMSO. Equipment • Biomek FX Laboratory Automated Workstation (Beckman Coulter Inc., Fullerton, Calif.) • CO2 incubator (VWR Science, USA) • Bright line Hemacytometer (Z359629, Sigma, IL, USA) Materials • 384-deep well plates (Greiner, N^o 781270) • 384-well optical bottom tissue culture plates (Greiner, No. 82051-282) Propagation CONDITIONS: 37° C., air 95%; carbon dioxide (CO2) 5%, humidified atmosphere. Subculturing: • Cells were grown in 175 cm^2 flasks to 90-100% of confluency. • Culture medium (RPMI-1640 (Paneco, C310)+10% fetal bovine serum (FBS)) was aspirated and cell layer was briefly rinsed with 0.53 mM EDTA (ethylenediaminetetraacetic acid) solution to remove all traces of serum. • 2 ml of 0.2% trypsin/0.53 mM EDTA solution was added to cells. • Flasks were returned to incubator for 5 min to allow cells detachment. • Add 6.0 ml of culture medium. • Single cell suspension was created by gently pipetting. • Cells are counted using a Hematocytometer and suspension with desirable cell concentration is prepared.
To test proliferation inhibition DU-145 cells were plated in 384-well plate at the density 4000 cells/well. Next day 4 mM solutions of compounds in DMSO were diluted 100 times in medium and added to cells to final concentration 20 uM (40 ul of cells+40 ul of compounds). Taxol at final concentration 1 uM was used as positive control. Cells were incubated with compounds for 3 days. After that Alamar-Blue was added to cells to final concentration of 50 uM. After incubation for 4-6 hours at 37° C., fluorescence in plate was read using fluorescence plate reader Wallac 1420 (530 nm excitation filter, 590 nm emission filter). Proliferation inhibition was calculated using formula: % INH=100*((Fnegative−compound signal)/(Fnegative−Fpositive)), • Fnegative—DMSO was added to cells (viable cells) • Fpositive—taxol (1 uM) was added to cells (number of cells at the first day of incubation)
In general terms: Resazurin is reduced to fluorescent resorufin, in cell work by metabolically active cells.

`COc1ccc(C(=O)N2CCc3cc4cc(C)ccc4nc32)cc1OC` [Example 2, (3,4-dimethoxyphenyl)(6-methyl-2,3-dihydro-1H-pyrrolo[2,3-b]quinolin-1-yl)methanone]: inhibition was half-maximal at 0.183 µM (IC50).
Regarding `COc1cccc(C(=O)N2CCc3cc4cc(C)ccc4nc32)c1` [Example 3, (3-methoxyphenyl)(6-methyl-2,3-dihydro-1H-pyrrolo[2,3-b]quinolin-1-yl)methanone], inhibition was half-maximal at 0.613 µM (IC50). Against the preceding molecule, the IC50 is about 3.3-fold higher.
The result for `CC1=Cc2c3c(ccc2=N1)=CCCN3C(=O)c1cccc(F)c1` [Example 10, (3-fluorophenyl)(8-methyl-2,3-dihydro-1H-pyrrolo[2,3-h]quinolin-1-yl)methanone] reads 4400 µM; that for `COc1cc(C(=O)N2CCc3cc4ccccc4nc32)cc(OC)c1OC` [Example 1, 2,3-dihydro-1H-pyrrolo[2,3-b]quinolin-1-yl(3,4,5-trimethoxyphenyl)methanone], 0.114 µM; that for `O=C(c1ccccc1Br)N1CCc2cc3ccccc3nc21` [Example 9, (2-bromophenyl)(2,3-dihydro-1H-pyrrolo[2,3-b]quinolin-1-yl)methanone], 238 µM.
In turn, `Cc1cccc2cc3c(nc12)N(C(=O)c1ccccc1F)CC3` [Example 8, (2-fluorophenyl)(8-methyl-2,3-dihydro-1H-pyrrolo[2,3-b]quinolin-1-yl)methanone] registered an IC50 of 134 µM.
With `Cc1ccc(C(=O)N2CCC=c3cc(C)c4c(c32)C=CN=4)cc1` [Example 5, (6-methyl-2,3-dihydro-1H-pyrrolo[2,3-h]quinolin-1-yl)(4-methylphenyl)methanone] the figure was 10.3 µM.
`COc1ccccc1C(=O)N1CCc2cc3cccc(C)c3nc21` [Example 6, (2-methoxyphenyl)(8-methyl-2,3-dihydro-1H-pyrrolo[2,3-b]quinolin-1-yl)methanone] displayed an IC50 of 16.1 µM. This IC50 lies about 1.6-fold higher than the previous one.
With `CC1=Cc2c3c(ccc2=N1)=CCCN3C(=O)c1ccccc1C` [Example 7, (8-methyl-2,3-dihydro-1H-pyrrolo[2,3-h]quinolin-1-yl)(2-methylphenyl)methanone] the figure was 17.2 µM; with `COc1ccccc1C(=O)N1CCc2cc3ccccc3nc21` [Example 4, 2,3-dihydro-1H-pyrrolo[2,3-b]quinolin-1-yl(2-methoxyphenyl)methanone], 3.62 µM.
The molecule `Cc1cccc2cc3c(nc12)N(C(=O)c1ccccc1Br)CC3` [Example 11, (2-bromophenyl)(8-methyl-2,3-dihydro-1H-pyrrolo[2,3-b]quinolin-1-yl)methanone] yielded an IC50 of 15000 µM.

The term IC50 denotes the concentration at which inhibition is half-maximal. A low value points to greater potency in that assay.
